Data reported in ChEMBL document CHEMBL3751806, “Synthesis, experimental evaluation and molecular modelling of hydroxamate derivatives as zinc metalloproteinase inhibitors” (Eur J Med Chem, 2016).

Assays:
[1] = biological target: Thermolysin (Bacillus thermoproteolyticus) (UniProt P00800); experiment: Inhibition of Bacillus thermoproteolyticus thermolysin pretreated with compound for 15 mins followed by the addition of Abz-Ala-Gly-leu-Ala-p-nitrobenzalamide as substrate by spectrofluorometry
[2] = biological target: Disintegrin and metalloproteinase domain-containing protein 17 (Homo sapiens, UniProt P78536); experiment: Inhibition of recombinant human ADAM17 after 30 mins using FS-6 as substrate by fluorometry
Elastase = Elastase (Pseudomonas aeruginosa (strain ATCC 15692 / PAO1 / 1C / PRS 101 / LMG12228), UniProt P14756); experiment: Inhibition of Pseudomonas aeruginosa pseudolysin pretreated with compound for 1 hr followed by the addition of 1.73 uM bradykinin like substrate by spectrofluorometry
Thermolysin [3] = biological target: T1, Thermolysin (Bacillus thermoproteolyticus, UniProt P00800); experiment: Inhibition of Bacillus thermoproteolyticus thermolysin pretreated with compound for 1 hr followed by the addition of 3.33 uM bradykinin like substrate by spectrofluorometry assay
T1 sequence (P00800 whole entry): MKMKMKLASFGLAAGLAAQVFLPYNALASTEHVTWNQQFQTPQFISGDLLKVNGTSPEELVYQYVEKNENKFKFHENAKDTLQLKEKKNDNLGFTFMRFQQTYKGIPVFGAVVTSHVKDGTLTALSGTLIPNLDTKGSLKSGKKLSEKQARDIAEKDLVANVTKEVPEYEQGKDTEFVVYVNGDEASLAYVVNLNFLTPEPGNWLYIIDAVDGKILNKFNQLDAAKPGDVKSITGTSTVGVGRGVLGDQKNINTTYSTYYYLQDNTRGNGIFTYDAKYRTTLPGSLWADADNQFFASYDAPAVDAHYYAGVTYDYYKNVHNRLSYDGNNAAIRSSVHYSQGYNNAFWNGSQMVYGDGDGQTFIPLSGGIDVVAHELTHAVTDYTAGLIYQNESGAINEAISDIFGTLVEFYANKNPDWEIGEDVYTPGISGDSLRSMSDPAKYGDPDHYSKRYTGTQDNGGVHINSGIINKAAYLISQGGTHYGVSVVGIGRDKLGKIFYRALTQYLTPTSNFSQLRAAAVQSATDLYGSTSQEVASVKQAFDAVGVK

[4] = biological target: Matrix metalloproteinase-9 (Homo sapiens, UniProt P14780); experiment: Inhibition of recombinant human MMP9 after 2 hrs using FS-6 as substrate by fluorometry
[5] = biological target: 72 kDa type IV collagenase (Homo sapiens, UniProt P08253); experiment: Inhibition of recombinant human MMP2 after 2 hrs using FS-6 as substrate by fluorometry
Thermolysin [6] = biological target: T1, Thermolysin; experiment: Inhibition of Bacillus thermoproteolyticus thermolysin pretreated with compound for 15 mins followed by the addition of 75 uM Abz-Ala-Gly-leu-Ala-p-nitrobenzalamide as substrate by spectrofluorometry

Sequence of Disintegrin and metalloproteinase domain-containing protein 17 (P78536 whole entry, the tested form may be a part): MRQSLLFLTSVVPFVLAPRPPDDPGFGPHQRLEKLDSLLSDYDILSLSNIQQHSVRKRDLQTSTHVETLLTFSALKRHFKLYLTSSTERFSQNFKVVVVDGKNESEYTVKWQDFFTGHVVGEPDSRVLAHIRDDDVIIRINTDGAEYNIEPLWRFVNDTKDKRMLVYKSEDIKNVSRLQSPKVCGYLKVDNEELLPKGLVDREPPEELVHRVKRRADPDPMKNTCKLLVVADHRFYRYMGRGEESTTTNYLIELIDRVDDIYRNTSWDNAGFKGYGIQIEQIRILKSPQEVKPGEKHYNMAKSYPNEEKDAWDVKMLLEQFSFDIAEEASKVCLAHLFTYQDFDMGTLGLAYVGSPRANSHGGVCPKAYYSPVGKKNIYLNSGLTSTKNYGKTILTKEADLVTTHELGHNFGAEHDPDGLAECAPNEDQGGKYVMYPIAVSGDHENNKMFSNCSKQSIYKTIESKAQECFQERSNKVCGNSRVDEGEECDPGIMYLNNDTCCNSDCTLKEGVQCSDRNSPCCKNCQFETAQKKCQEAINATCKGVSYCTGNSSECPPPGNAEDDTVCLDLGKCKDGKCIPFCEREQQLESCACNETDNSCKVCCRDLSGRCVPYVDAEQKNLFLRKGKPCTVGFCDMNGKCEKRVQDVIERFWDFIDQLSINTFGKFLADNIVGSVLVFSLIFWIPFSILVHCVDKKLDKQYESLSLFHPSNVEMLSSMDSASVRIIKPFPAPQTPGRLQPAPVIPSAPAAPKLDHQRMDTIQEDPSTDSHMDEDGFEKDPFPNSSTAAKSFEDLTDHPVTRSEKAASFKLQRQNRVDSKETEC
Sequence of Matrix metalloproteinase-9 (P14780 whole entry): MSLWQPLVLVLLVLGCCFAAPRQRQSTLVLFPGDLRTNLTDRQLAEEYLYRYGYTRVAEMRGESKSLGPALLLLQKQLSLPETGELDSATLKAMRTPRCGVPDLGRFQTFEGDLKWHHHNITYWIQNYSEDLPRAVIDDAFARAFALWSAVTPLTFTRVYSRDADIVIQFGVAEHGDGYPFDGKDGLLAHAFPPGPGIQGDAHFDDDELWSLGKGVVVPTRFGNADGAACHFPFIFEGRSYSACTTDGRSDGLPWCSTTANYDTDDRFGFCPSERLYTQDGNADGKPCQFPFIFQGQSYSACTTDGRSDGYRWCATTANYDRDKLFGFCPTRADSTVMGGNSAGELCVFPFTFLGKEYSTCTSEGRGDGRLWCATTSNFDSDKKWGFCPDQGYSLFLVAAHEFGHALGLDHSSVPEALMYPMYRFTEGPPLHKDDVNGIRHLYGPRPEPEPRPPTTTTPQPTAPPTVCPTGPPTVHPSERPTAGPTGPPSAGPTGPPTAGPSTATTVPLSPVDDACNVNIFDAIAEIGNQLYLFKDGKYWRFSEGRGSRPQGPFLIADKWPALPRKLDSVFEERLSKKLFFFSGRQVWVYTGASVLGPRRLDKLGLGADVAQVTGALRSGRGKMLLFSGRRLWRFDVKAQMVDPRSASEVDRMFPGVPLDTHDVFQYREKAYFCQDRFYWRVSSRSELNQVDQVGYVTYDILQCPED
Sequence of Elastase (P14756 whole entry): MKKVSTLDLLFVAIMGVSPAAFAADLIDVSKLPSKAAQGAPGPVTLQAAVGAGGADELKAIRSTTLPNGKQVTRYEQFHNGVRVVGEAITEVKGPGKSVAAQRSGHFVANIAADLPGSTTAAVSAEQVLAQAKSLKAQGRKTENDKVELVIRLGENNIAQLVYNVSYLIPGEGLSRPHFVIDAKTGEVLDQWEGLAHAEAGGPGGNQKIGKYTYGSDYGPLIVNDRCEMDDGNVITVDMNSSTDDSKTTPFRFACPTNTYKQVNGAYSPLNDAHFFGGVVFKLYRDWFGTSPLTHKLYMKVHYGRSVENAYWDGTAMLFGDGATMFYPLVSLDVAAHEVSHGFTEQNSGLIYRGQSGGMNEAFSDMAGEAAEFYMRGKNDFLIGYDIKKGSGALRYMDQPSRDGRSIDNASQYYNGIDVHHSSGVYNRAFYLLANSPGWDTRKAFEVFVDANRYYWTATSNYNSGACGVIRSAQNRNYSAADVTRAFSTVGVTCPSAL
Sequence of 72 kDa type IV collagenase (P08253 whole entry): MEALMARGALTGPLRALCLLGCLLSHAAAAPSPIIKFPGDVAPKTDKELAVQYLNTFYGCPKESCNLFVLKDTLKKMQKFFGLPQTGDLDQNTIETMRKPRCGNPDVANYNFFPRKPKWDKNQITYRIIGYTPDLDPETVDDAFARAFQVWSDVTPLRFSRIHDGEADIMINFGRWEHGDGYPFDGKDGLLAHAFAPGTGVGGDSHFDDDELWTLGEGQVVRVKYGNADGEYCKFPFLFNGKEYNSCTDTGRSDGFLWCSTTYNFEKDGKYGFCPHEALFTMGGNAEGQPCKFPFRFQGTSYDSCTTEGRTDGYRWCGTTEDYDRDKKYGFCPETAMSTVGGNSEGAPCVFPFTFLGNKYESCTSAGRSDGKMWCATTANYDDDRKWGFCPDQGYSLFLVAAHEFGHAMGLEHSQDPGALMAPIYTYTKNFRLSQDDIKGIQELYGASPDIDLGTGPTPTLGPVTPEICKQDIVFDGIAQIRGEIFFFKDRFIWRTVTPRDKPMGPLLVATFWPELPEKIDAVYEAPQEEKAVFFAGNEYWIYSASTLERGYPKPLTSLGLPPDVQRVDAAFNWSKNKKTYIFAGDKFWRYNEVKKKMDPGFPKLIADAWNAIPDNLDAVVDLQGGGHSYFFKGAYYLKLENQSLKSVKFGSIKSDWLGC

SMILES | IC50 [1] [µM] | IC50 [2] [µM] | IC50 (Elastase) [µM] | IC50 (Thermolysin [3]) [µM] | IC50 [4] [µM] | IC50 [5] [µM] | IC50 (Thermolysin [6]) [µM]
COc1ccc(S(=O)(=O)N(CC(C)C)[C@@H](C(=O)NO)C(C)C)cc1 | 103 |  |  |  |  |  | 
CC(C)ON([C@@H](C(=O)NO)C(C)C)S(=O)(=O)c1ccc(-c2ccccc2)cc1 |  | 14 |  |  |  |  | 
CCCCC(NOCc1ccccc1)C(=O)NO (configuration not stated) | 1.1 | 100 | 1.9 | 9.5 |  |  | 
O=C(Cc1ccccc1S(=O)(=O)c1ccc(OCCCN2C(=O)c3ccccc3C2=O)cc1)NO | 7 | 150 | 38 | 132 | > 10 | > 10 | 
O=C(N[C@H](CCN1C(=O)c2ccccc2C1=O)C(=O)NO)c1ccc(Oc2ccccc2)cc1 | 16 | 9.5 |  |  | 8.2 | 9 | 
COc1ccc(S(=O)(=O)N(CC(=O)NO)OC23CC4CC(CC(C4)C2)C3)cc1 |  |  |  |  | 2 | 2 | 
O=C(CCNS(=O)(=O)c1ccc(-c2ccccc2)cc1)NO | 30 |  | 79 | 30 | 26 | 2.4 | 30
CC(C)CN([C@@H](C(=O)NO)C(C)C)S(=O)(=O)c1ccc(-c2ccccc2)cc1 |  |  |  |  | 0.0053 | 0.003 | 
CC(C)ON(CC(=O)NO)S(=O)(=O)c1ccc(Br)s1 | 3.3 | 114 | 31 | 29 | 6.2 | 1.1 | 29
COc1ccc(S(=O)(=O)c2ccccc2CC(=O)NO)cc1 | 17 | 67 | 29 | 146 |  |  | 
